T/C data for 22 compounds are collected here from PubChem BioAssay AID200 (DTP/NCI, 2004).

For this assay, the system named is B6C3F1 mice, B16 melanoma ip, median survival T/C. Description: NCI In Vivo Anticancer Drug Screen. Data for tumor model B16 Melanoma (intraperitoneal) in B6C3F1 mice. As to conditions: endpoint: median survival time, higher = longer survival. In outline:
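Mice bearing transplanted tumor were dosed with compound or vehicle, and survival was recorded. Activity is expressed as the treated-group measurement (T) divided by the vehicle control measurement (C).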

[1] abbreviates: dose: 3.12 mg/kg/injection, schedule: Q01DX009 (ip), vehicle: Klucel (hydroxypropylcellulose) (HPC).
[2] abbreviates: dose: 6.25 mg/kg/injection, schedule: Q01DX009 (ip), vehicle: Klucel (hydroxypropylcellulose) (HPC).
Setting [3] is: dose: 3.13 mg/kg/injection, schedule: Q01DX009 (ip), vehicle: saline with Tween-80.
The mark [4] stands for this setting: dose: 6.25 mg/kg/injection, schedule: Q01DX009 (ip), vehicle: saline with Tween-80.
The mark [5] stands for this setting: dose: 12.5 mg/kg/injection, schedule: Q01DX009 (ip), vehicle: saline with Tween-80.
Where [6] appears, read: dose: 25.0 mg/kg/injection, schedule: Q01DX009 (ip), vehicle: saline with Tween-80.
Setting [7] is: dose: 50.0 mg/kg/injection, schedule: Q01DX009 (ip), vehicle: saline with Tween-80.
Setting [8] is: dose: 100.0 mg/kg/injection, schedule: Q01DX009 (ip), vehicle: saline with Tween-80.
Where [9] appears, read: dose: 12.5 mg/kg/injection, schedule: Q01DX009 (ip), vehicle: saline.
Where [10] appears, read: dose: 200.0 mg/kg/injection, schedule: Q01DX009 (ip), vehicle: saline with Tween-80.
The mark [11] stands for this setting: dose: 25.0 mg/kg/injection, schedule: Q01DX009 (ip), vehicle: saline.
Where [12] appears, read: dose: 50.0 mg/kg/injection, schedule: Q01DX009 (ip), vehicle: saline.
[13] abbreviates: dose: 100.0 mg/kg/injection, schedule: Q01DX009 (ip), vehicle: saline.
Setting [14] is: dose: 200.0 mg/kg/injection, schedule: Q01DX009 (ip), vehicle: saline.
Setting [15] is: dose: 400.0 mg/kg/injection, schedule: Q01DX009 (ip), vehicle: saline.
Where [16] appears, read: dose: 12.5 mg/kg/injection, schedule: Q01DX009 (ip), vehicle: Klucel (hydroxypropylcellulose) (HPC).
The mark [17] stands for this setting: dose: 25.0 mg/kg/injection, schedule: Q01DX009 (ip), vehicle: Klucel (hydroxypropylcellulose) (HPC).
Setting [18] is: dose: 50.0 mg/kg/injection, schedule: Q01DX009 (ip), vehicle: Klucel (hydroxypropylcellulose) (HPC).
[19] abbreviates: dose: 100.0 mg/kg/injection, schedule: Q01DX009 (ip), vehicle: Klucel (hydroxypropylcellulose) (HPC).
[20] abbreviates: dose: 200.0 mg/kg/injection, schedule: Q01DX009 (ip), vehicle: Klucel (hydroxypropylcellulose) (HPC).

Several values for one entry are separate records, joined by “and”; a condition that tells them apart may be missing. Equal values may be shown once. Toxic doses and inconclusive results are not listed. Where a SMILES comes first, the peptide text is derived from it.

Take `CNC(=O)OCc1c(COC(=O)NC)c(-c2ccc(F)cc2)n2c1CCC2`: the T/C by setting is: (dose: 0.78 mg/kg/injection, schedule: Q01DX009 (ip), vehicle: Klucel (hydroxypropylcellulose) (HPC)) 114 % of control; (dose: 1.56 mg/kg/injection, schedule: Q01DX009 (ip), vehicle: Klucel (hydroxypropylcellulose) (HPC)) 108 % of control; under setting [1], 122 % of control; under setting [2], 117 % of control.

Turning to `CS(=O)(=O)c1ncc(Br)cn1`, the T/C was 100 % of control (dose: 3.12 mg/kg/injection, schedule: Q01DX009 (ip), vehicle: saline with Tween-80); 101 % of control under setting [3]; 99 % of control and 105 % of control under setting [4]; 98 % of control and 106 % of control under setting [5]; 96 % of control and 104 % of control under setting [6]; 109 % of control and 97 % of control under setting [7]. Further, the T/C under setting [8] was 100 % of control and 104 % of control.

Regarding `O=NN(CCF)C(=O)NCCO`, the T/C by setting is: (dose: 15.0 mg/kg/injection, schedule: Q01DX001 (ip), vehicle: saline) 181 % of control; (dose: 30.0 mg/kg/injection, schedule: Q01DX001 (ip), vehicle: saline) 221 % of control; (dose: 60.0 mg/kg/injection, schedule: Q01DX001 (ip), vehicle: saline) 250 % of control.

As for `O=c1n(CC2CO2)c(=O)n(CC2CO2)n1CC1CO1` (stereo not drawn), the T/C was 172 % of control (dose: 3.0 mg/kg/injection, schedule: Q01DX009 (ip), vehicle: saline); 212 % of control (dose: 6.0 mg/kg/injection, schedule: Q01DX009 (ip), vehicle: saline); 183 % of control (dose: 6.25 mg/kg/injection, schedule: Q01DX009 (ip), vehicle: saline); 300 % of control (dose: 12.0 mg/kg/injection, schedule: Q01DX009 (ip), vehicle: saline); 198 % of control under setting [9].

As for `Nc1ncnc2c1ncn2C1C=C(CO)C(O)C1O` (stereo not drawn), the T/C reads like this: (dose: 0.5 mg/kg/injection, schedule: Q01DX009 (ip), vehicle: saline) 97 % of control and 106 % of control; (dose: 1.0 mg/kg/injection, schedule: Q01DX009 (ip), vehicle: saline) 99 % of control and 103 % of control; (dose: 2.0 mg/kg/injection, schedule: Q01DX009 (ip), vehicle: saline) 102 % of control and 103 % of control; (dose: 4.0 mg/kg/injection, schedule: Q01DX009 (ip), vehicle: saline) 110 % of control and 105 % of control.

As for `O=C1O/C(=C2\OCc3ccccc32)c2ccccc21`, the T/C is, setting by setting: under setting [6], 115 % of control; under setting [7], 119 % of control; under setting [8], 96 % of control; under setting [10], 102 % of control.

Turning to `Cc1ccc(C(=Nc2ccccc2)N=P(c2ccccc2)(c2ccccc2)c2ccccc2)cc1`, the T/C is, setting by setting: under setting [5], 94 % of control; under setting [6], 114 % of control; under setting [7], 99 % of control.

Regarding `CN1C2CCC1C(Br)C(=O)C2` (stereo not drawn), the T/C reads like this: under setting [11], 105 % of control; under setting [12], 95 % of control; under setting [13], 93 % of control; under setting [14], 93 % of control.

In the case of `NC(N)=NCCCC(N)C(=O)NCC(=O)NCC(=O)O` (stereo not drawn) (HELM PEPTIDE1{[N=C(N)NCCCC(N)C(=O)[*:2]].G.G}$$$$V2.0), the T/C was 107 % of control under setting [13], 102 % of control under setting [14] and 111 % of control under setting [15].

Regarding `COc1ccc2ccccc2c1C1NC(=O)c2ccccc2N1` (stereo not drawn), the T/C is 96 % of control under setting [16]; 100 % of control under setting [17]; 96 % of control under setting [18]; 100 % of control under setting [19]; 104 % of control under setting [20]; 102 % of control (dose: 400.0 mg/kg/injection, schedule: Q01DX009 (ip), vehicle: Klucel (hydroxypropylcellulose) (HPC)).

As to `C1OCN2CSCC12` (stereo not drawn), the T/C runs as follows: under setting [5], 106 % of control; under setting [6], 94 % of control and 99 % of control; under setting [7], 92 % of control and 99 % of control; under setting [8], 108 % of control and 109 % of control; under setting [10], 109 % of control and 90 % of control.

With `CCCC(=O)Nc1ncnc2c1ncn2C1OC2COP(=O)(O)OC2C1OC(=O)CCC` (stereo not drawn), the T/C runs as follows: under setting [9], 102 % of control (2×) and 103 % of control; under setting [11], 95 % of control and 100 % of control and 104 % of control; under setting [12], 93 % of control and 102 % of control (2×); under setting [13], 94 % of control and 101 % of control and 102 % of control; under setting [14], 112 % of control and 88 % of control and 100 % of control; under setting [15], 88 % of control and 94 % of control and 103 % of control.

`O=C1C=CC(=O)N1c1ccc(Cl)cc1`: the T/C (dose: 0.31 mg/kg/injection, schedule: Q01DX009 (ip), vehicle: Klucel (hydroxypropylcellulose) (HPC)) is 100 % of control and 102 % of control; the T/C (dose: 0.63 mg/kg/injection, schedule: Q01DX009 (ip), vehicle: Klucel (hydroxypropylcellulose) (HPC)) was 111 % of control and 86 % of control; the T/C (dose: 1.25 mg/kg/injection, schedule: Q01DX009 (ip), vehicle: Klucel (hydroxypropylcellulose) (HPC)) is 96 % of control and 100 % of control; the T/C (dose: 2.5 mg/kg/injection, schedule: Q01DX009 (ip), vehicle: Klucel (hydroxypropylcellulose) (HPC)) was 100 % of control.

`COc1cccc(/C=C/[N+](=O)[O-])c1OC`: the T/C reads like this: under setting [1], 100 % of control; under setting [2], 98 % of control; under setting [16], 94 % of control; under setting [17], 96 % of control.

For `O=C(NC(CSSCC(NC(=O)OCc1ccccc1)C(=O)O)C(=O)O)OCc1ccccc1` (stereo not drawn), the T/C was 104 % of control under setting [17], 94 % of control under setting [18], 102 % of control under setting [19] and 88 % of control under setting [20].

For `O=S(=O)(N=N/C=C1\C=CC=CN1O)c1cccs1`, the T/C is, setting by setting: under setting [5], 101 % of control; under setting [6], 104 % of control; under setting [7], 114 % of control.

Turning to `CC(C(C(=O)N1CCCCC1)N1CCCCC1)N1CCCCC1` (stereo not drawn), the T/C is, setting by setting: under setting [8], 94 % of control; under setting [10], 95 % of control; (dose: 400.0 mg/kg/injection, schedule: Q01DX009 (ip), vehicle: saline with Tween-80) 103 % of control.

As to `CC(=O)NCCCCCCNC(C)=O`, the T/C was 108 % of control under setting [11]; 97 % of control under setting [12]; 106 % of control under setting [13]; 106 % of control under setting [14]; 179 % of control (dose: 800.0 mg/kg/injection, schedule: Q01DX009 (ip), vehicle: saline).

For `Cc1cc(Cc2cc(C)c(C)c(C)c2C)c(C)c(C)c1C`, the T/C is 89 % of control (dose: 0.78 mg/kg/injection, schedule: Q01DX009 (ip), vehicle: saline with Tween-80); 91 % of control (dose: 1.56 mg/kg/injection, schedule: Q01DX009 (ip), vehicle: saline with Tween-80); 100 % of control under setting [3]; 106 % of control under setting [4].

With `C[CH2][Ge]([CH2]C)[CH2]C.C[CH2][Ge]([CH2]C)[CH2]C.C[CH2][Ge]([CH2]C)[O][Ge]([CH2]C)[CH2]C`, the T/C runs as follows: under setting [3], 89 % of control; under setting [4], 93 % of control; under setting [5], 87 % of control.

In the case of `COC1=CC(=O)c2c(O)cc(OC)cc2C1=O`, the T/C (dose: 1.25 mg/kg/injection, schedule: Q01DX009 (ip), vehicle: saline with Tween-80) is 105 % of control; the T/C (dose: 2.5 mg/kg/injection, schedule: Q01DX009 (ip), vehicle: saline with Tween-80) is 105 % of control; the T/C (dose: 5.0 mg/kg/injection, schedule: Q01DX009 (ip), vehicle: saline with Tween-80) is 121 % of control; the T/C (dose: 10.0 mg/kg/injection, schedule: Q01DX009 (ip), vehicle: saline with Tween-80) was 109 % of control.

Regarding `NC(=O)C#CC(N)=O`, the T/C was 101 % of control (dose: 0.06 mg/kg/injection, schedule: Q01DX009 (ip), vehicle: Klucel (hydroxypropylcellulose) (HPC)); 102 % of control (dose: 0.12 mg/kg/injection, schedule: Q01DX009 (ip), vehicle: Klucel (hydroxypropylcellulose) (HPC)); 97 % of control (dose: 0.23 mg/kg/injection, schedule: Q01DX009 (ip), vehicle: Klucel (hydroxypropylcellulose) (HPC)); 100 % of control (dose: 0.45 mg/kg/injection, schedule: Q01DX009 (ip), vehicle: Klucel (hydroxypropylcellulose) (HPC)); 102 % of control (dose: 0.9 mg/kg/injection, schedule: Q01DX009 (ip), vehicle: Klucel (hydroxypropylcellulose) (HPC)).
